Patent publication US4029671A, “3-[(5-nitro-2-imidazolyl)pyrazol-5-yl]oxamic acid derivatives” (priority 1976, dated 1977)
Values after ≈ are worked out from the molar mass of the structure shown. Counter-ions that a name gives are not always drawn.

Tests used:
[1] = test system: Bacteroides fragilis sp. thetaiotaomicron 1438; assay: Agar dilution susceptibility of anaerobic bacteria (Chart 1); type: cell-based; settings: agar dilution, 37° C., Bacteroides fragilis sp. thetaiotaomicron 1438; for MIC: Bacteroides fragilis, 24 h, read-out: 24 Hr. MIC
[2] = test system: Bacteroides fragilis sp. fragilis 110; assay: as above; type: cell-based; settings: agar dilution, 37° C., Bacteroides fragilis sp. fragilis 110; for MIC: Bacteroides fragilis, 24 h, read-out: 24 Hr. MIC
[3] = test system: Eubacterium aerofaciens 1235; assay: as above; type: cell-based; settings: agar dilution, 37° C., Eubacterium aerofaciens 1235; for MIC: Collinsella aerofaciens, 1235, 24 h, read-out: 24 Hr. MIC
[4] = test system: Fusobacterium necrophorum 6054A; assay: as above; type: cell-based; settings: agar dilution, 37° C., Fusobacterium necrophorum 6054A; for MIC: Fusobacterium necrophorum, 6054A, 24 h, read-out: 24 Hr. MIC
[5] = test system: Bacteroides fragilis sp. fragilis 113; assay: as above; type: cell-based; settings: agar dilution, 37° C., Bacteroides fragilis sp. fragilis 113; for MIC: Bacteroides fragilis, 24 h, read-out: 24 Hr. MIC
[6] = test system: Peptococcus asaccharolyticus 1302; assay: as above; type: cell-based; settings: agar dilution, 37° C., Peptococcus asaccharolyticus 1302; for MIC: Peptoniphilus asaccharolyticus, 1302, 24 h, read-out: 24 Hr. MIC
[7] = test system: Bacteroides fragilis sp. fragilis 1451; assay: as above; type: cell-based; settings: agar dilution, 37° C., Bacteroides fragilis sp. fragilis 1451; for MIC: Bacteroides fragilis, 24 h, read-out: 24 Hr. MIC
[8] = test system: Actinomyces israelii W855; assay: as above; type: cell-based; settings: 24 h, agar dilution, 37° C., read-out: 24 Hr. MIC
Peptococcus prevoti 1281 = assay: as above; type: cell-based; settings: for MIC: 24 h, read-out: 24 Hr. MIC, agar dilution, 37° C.; for 24 Hr. MIC: agar dilution, 37° C.
[9] = test system: Propionibacterium acnes 79; assay: as above; type: cell-based; settings: agar dilution, 37° C., Propionibacterium acnes 79; for MIC: Cutibacterium acnes, 79, 24 h, read-out: 24 Hr. MIC
[10] = test system: Peptostreptococcus intermedius 1264; assay: as above; type: cell-based; settings: agar dilution, 37° C., Peptostreptococcus intermedius 1264; for MIC: Peptostreptococcus, 1264, 24 h, read-out: 24 Hr. MIC
[11] = test system: Bacteroides fragilis sp. fragilis 103; assay: as above; type: cell-based; settings: agar dilution, 37° C., Bacteroides fragilis sp. fragilis 103; for MIC: Bacteroides fragilis, 24 h, read-out: 24 Hr. MIC
[12] = test system: Bacteroides fragilis sp. fragilis 112; assay: as above; type: cell-based; settings: agar dilution, 37° C., Bacteroides fragilis sp. fragilis 112; for MIC: Bacteroides fragilis, 24 h, read-out: 24 Hr. MIC
[13] = test system: Peptostreptococcus anaerobius 1428; assay: as above; type: cell-based; settings: agar dilution, 37° C., Peptostreptococcus anaerobius 1428; for MIC: Peptostreptococcus anaerobius, 1428, 24 h, read-out: 24 Hr. MIC
[14] = test system: Bacteroides fragilis sp. fragilis 108; assay: as above; type: cell-based; settings: agar dilution, 37° C., Bacteroides fragilis sp. fragilis 108; for MIC: Bacteroides fragilis, 24 h, read-out: 24 Hr. MIC
[15] = test system: Bacteroides fragilis sp. fragilis 106; assay: as above; type: cell-based; settings: agar dilution, 37° C., Bacteroides fragilis sp. fragilis 106; for MIC: Bacteroides fragilis, 24 h, read-out: 24 Hr. MIC
[16] = test system: Bacteroides fragilis sp. vulgatis 1563; assay: as above; type: cell-based; settings: agar dilution, 37° C., Bacteroides fragilis sp. vulgatis 1563; for MIC: Bacteroides fragilis, 24 h, read-out: 24 Hr. MIC
[17] = test system: Bacteroides fragilis sp. fragilis 107; assay: as above; type: cell-based; settings: Bacteroides fragilis, 24 h, agar dilution, 37° C.; Bacteroides fragilis sp. fragilis 107; read-out: 24 Hr. MIC
Salmonella typhimurium = assay: Control of infections caused by Salmonella typhimurium in chickens (Chart 2); type: in vivo; settings: 60 mg./kg. subcutaneous, day-old chicks, 5 per group, 6 days observation
Method: The efficacy of the novel compounds in the control of infections caused by Salmonella typhimurium in chickens was evaluated in the following manner. The test was carried out using day-old chicks weighing approximately 35 g. each. The chicks were divided into groups of 5 chicks per each dosage level. A portion of the chicks received the test compound which was suspended in 0.2 ml. of polyethylene glycol 200 and administered subcutaneously in the neck. […] All the chicks were challenged with a 1:200 dilution of a culture of the organism, 0.1 ml. of the dilution being injected into each chick in the leg intramuscularly. […] The test compounds are identified in the same manner as set forth in experiment 1. In the chart, column 1 lists the compounds tested; column 2, the dosage of test compound in mg./kg.; and column 3, the survival ratio.

Row | Structure (SMILES) | MIC [1] [µg/mL] | MIC [2] [µg/mL] | MIC [3] [µg/mL] | MIC [4] [µg/mL] | MIC [5] [µg/mL] | MIC [6] [µg/mL] | MIC [7] [µg/mL] | MIC [8] [µg/mL] | MIC (Peptococcus prevoti 1281) [µg/mL] | MIC [9] [µg/mL] | MIC [10] [µg/mL] | MIC [11] [µg/mL] | MIC [12] [µg/mL] | MIC [13] [µg/mL] | MIC [14] [µg/mL] | MIC [15] [µg/mL] | MIC [16] [µg/mL] | MIC [17] [µg/mL] | Survival Ratio (Salmonella typhimurium) | 24 Hr. MIC [6] [µg/mL] | other results
1 | CCC[C@@H]1C[C@@H](C(=O)N[C@@H]([C@H]2O[C@H](SC)[C@H](O)[C@@H](O)[C@H]2O)[C@H](C)Cl)N(C)C1 [C, clindamycin, reference compound] | 0.5 (≈ 1.18 µM) | 0.125 (≈ 0.294 µM) | 8 (≈ 18.8 µM) | ≤ 0.5 | 0.125 (≈ 0.294 µM) | ≤ 0.5 | 1 (≈ 2.35 µM) | ≤ 0.5 | 32 (≈ 75.3 µM) | ≤ 0.5 | 1 (≈ 2.35 µM) | ≤ 0.06 | 0.25 (≈ 0.588 µM) | ≤ 0.5 | 0.125 (≈ 0.294 µM) | 0.125 (≈ 0.294 µM) | 0.125 (≈ 0.294 µM) | 0.25 (≈ 0.588 µM) |  |  | 
2 | CCOC(=O)C(=O)Nc1c(C#N)c(-c2ncc([N+](=O)[O-])n2C)nn1C [Example 1, N-[4-Cyano-1-methyl-3-(1-methyl-5-nitroimidazol-2-yl)pyrazol-5-yl]oxamic acid, ethyl ester] | 0.25 (≈ 0.72 µM) | 0.25 (≈ 0.72 µM) | 0.5 (≈ 1.44 µM) | ≤ 0.25 | 0.25 (≈ 0.72 µM) |  | 0.25 (≈ 0.72 µM) | > 64 | ≤ 0.25 | 32 (≈ 92.1 µM) |  |  | 0.125 (≈ 0.36 µM) | ≤ 0.25 | 0.125 (≈ 0.36 µM) | 0.125 (≈ 0.36 µM) |  | 0.25 (≈ 0.72 µM) | 4/5 | 1.0 | 24 Hr. MIC [10]: 16 µg/mL; 24 Hr. MIC [11]: ≤ 0.03 µg/mL; 24 Hr. MIC [16]: 0.125 µg/mL
3 | CCOC(=O)C(=O)Nc1c(C#N)c(-c2ncc([N+](=O)[O-])n2C)nn1C [Example 2, N-[4-Cyano-1-methyl-3-(1-methyl-5-nitroimidazol-2-yl)pyrazol-5-yl]oxamic acid, ethyl ester, sodium salt] |  |  |  |  |  |  |  |  |  |  |  |  |  |  |  |  |  |  |  |  | 24 Hr. MIC ([1]; sodium salt): 0.25 µg/mL; 24 Hr. MIC ([2]; sodium salt): 0.25 µg/mL; Survival Ratio (Salmonella typhimurium; sodium salt): 2/5; 24 Hr. MIC ([3]; sodium salt): ≤ 0.25 µg/mL; 24 Hr. MIC ([4]; sodium salt): ≤ 0.25 µg/mL; 24 Hr. MIC ([5]; sodium salt): 0.25 µg/mL; 24 Hr. MIC ([6]; sodium salt): ≤ 0.25 µg/mL; 24 Hr. MIC (Peptococcus prevoti 1281; sodium salt): 0.5 µg/mL; 24 Hr. MIC ([9]; sodium salt): > 64 µg/mL; 24 Hr. MIC ([10]; sodium salt): > 64 µg/mL; 24 Hr. MIC ([11]; sodium salt): 0.125 µg/mL; 24 Hr. MIC ([12]; sodium salt): 0.25 µg/mL; 24 Hr. MIC ([13]; sodium salt): ≤ 0.25 µg/mL; 24 Hr. MIC ([14]; sodium salt): 0.25 µg/mL; 24 Hr. MIC ([15]; sodium salt): 0.25 µg/mL; 24 Hr. MIC ([16]; sodium salt): 0.5 µg/mL
4 | Cn1nc(-c2ncc([N+](=O)[O-])n2C)c(C#N)c1NC(=O)C(=O)NN [Example 6, 5-[4-Cyano-1-methyl-3-(1-methyl-5-nitroimidazol-2-yl)pyrazol5-yl]semioxamazide] | 1 (≈ 3 µM) | 0.5 (≈ 1.5 µM) |  | ≤ 0.25 | 0.25 (≈ 0.75 µM) |  | 0.5 (≈ 1.5 µM) | > 64 |  | 32 (≈ 96 µM) | 32 (≈ 96 µM) | 0.06 (≈ 0.18 µM) | 0.5 (≈ 1.5 µM) | ≤ 0.25 | 0.5 (≈ 1.5 µM) | 0.25 (≈ 0.75 µM) | 0.125 (≈ 0.375 µM) | 0.5 (≈ 1.5 µM) | 5/5 | ≤ 0.25 | 24 Hr. MIC [3]: 0.5 µg/mL; 24 Hr. MIC (Peptococcus prevoti 1281): 0.5 µg/mL
5 | Cn1nc(-c2ncc([N+](=O)[O-])n2C)c(C#N)c1NC(=O)C(=O)c1ccccc1 [Example 10, N-[4-cyano-1-methyl-3-(1-methyl-5-nitroimidazol-2-yl)pyrazol-5-yl]-2-phenylglyoxylamide] |  | ≤ 0.03 |  | 0.5 (≈ 1.32 µM) |  | 1 (≈ 2.64 µM) |  | > 64 |  | 64 (≈ 169 µM) | 64 (≈ 169 µM) | ≤ 0.03 | ≤ 0.03 |  | ≤ 0.03 | ≤ 0.03 |  | ≤ 0.03 |  |  | 24 Hr. MIC [1]: ≤ 0.03 µg/mL; 24 Hr. MIC [3]: 2 µg/mL; 24 Hr. MIC [5]: ≤ 0.03 µg/mL; 24 Hr. MIC [7]: ≤ 0.03 µg/mL; 24 Hr. MIC (Peptococcus prevoti 1281): 16 µg/mL; 24 Hr. MIC [13]: 1.0 µg/mL; 24 Hr. MIC [16]: 0.06 µg/mL
